Experimental data from patent US20150045301A1, “METHODS AND USES OF ANP (ATRIAL NATRIURETIC PEPTIDE), BNP (BRAIN NATRIURETIC PEPTIDE) AND CNP (C-TYPE NATRIURETIC PEPTIDE)-RELATED PEPTIDES AND DERIVATIVES THEREOF FOR TREATMENT OF RETINAL DISORDERS AND DISEASES” (KALOS Therapeutics, Inc., priority 2011, published 2015).
Several values for one entry are separate records, joined by “and”; a condition that tells them apart may be missing. Equal entries are not always repeated. Entries after “also recorded” stand apart in the source; their conditions may differ.

What was measured:
[1] = tested on: Human Pancreatic Adenocarcinoma Cells (HPAC); assay: HPAC cell viability / anti-cell proliferative assay (Calbiochem Rapid Cell Proliferation Kit, OD 450 nm); format: cell-based; settings: 48 hours; for Optical Densities in 96_Well Plate, Average: average of 5 wells; for Optical Densities in 96_Well Plate, single well: one of 5 replicate wells
Experimental: Human Pancreatic Adenocarcinoma Cells (HPAC) cells were obtained from ATCC and propagated in Dulbecco's modified Eagle's medium and Ham's F12 medium (DME-F12) (1:1) containing 2.5 mM glutamine, […], 5 ug/mL transferrin, 1 ng/mL EGF (epidermal growth factor), plus 5% FBS (fetal bovine serum). Cell cultures were incubated at 37° C., 5% CO2 in a 100% humidity atmosphere. The cells were routinely brought to confluence in T-flasks, rinsed with phosphate buffered saline(PBS), and treated with trypsin for 5 min at room temp. The trypsinized cells were rinsed from the plate with 10 mL medium and counted. Viability at subculturing was generally ≧95%.
Approximately 10,000 cells in 100 uL of medium were placed in each well of a 96-well plate and incubated over night. Peptides having the following sequences were used: Arg-15-Cys (RSSCAGAALSPLGAC); Pro-15-Val (PNEEAGAALSPLPEV); Ala-8-Leu (AGALSPL); C-ANP 4-23 ([…]) and, VDL ([…]). The peptides were dissolved in PBS and sterile filtered. The peptides were diluted into the cell culture medium to the following final concentrations: 1, 0.3, 0.1, 0.03, and 0.01 uM. Each peptide was tested in 5 replicate wells. The cultures were incubated for an additional 48 hours at 37° C.
The viability of the cells was determined using a Calbiochem Rapid Cell Proliferation Kit (catalog number QIA127). Ten uL of Calbiochem color reagent was added to each well and incubated for an additional 1.5 hours at 37° C. Optical densities were read at 450 nm using a Molecular Devices ThermoMax microplate reader. The plate template is shown in Table I (unlabeled wells contained cells but no peptide and were used as blanks). Results are presented in Table I, and are graphically illustrated in FIGS. 1 and 2.

cancer cells [2] = assay: Anti-cancer activity of peptides with the conserved motif (cell proliferative assay); format: cell-based; settings: statement in the description
From the text: This example describes activity of peptides having a conserved motif and conserved amino acids predicted to be functional in the motif. (Table III). This example also describes additional exemplary peptide sequences having a conserved motif predicted to have activity (Table IV). Notations “Res 1, Res 2” etc., herein refer by single letter abbreviation the amino acid in the exemplary peptide 8-mer. “Activity” can be determined by a cell proliferative assay, such as an assay described herein or known to one of skill in the art. Of course, peptides exemplified in Table IV can include the conserved motif peptide as part of a larger protein. The SEQ ID NO is the same as the peptide number. Each of these exemplary peptides can be analyzed in vitro, ex vivo, and in vivo for anti-cell proliferative activity using an assay, such as a cell based in vitro assay described in Examples 1 or 4.

[3] = tested on: Human RPE cells (ARPE-19); assay: Transepithelial electrical resistance (TEER) of RPE cell layer treated with VEGF; format: cell-based; settings: ARPE-19 cell layer, concurrent treatment with VEGF 10 ng/ml, ANP luM
cancer cells [4] = settings: comparison between natriuretic peptides, Vesely 2008; cited from earlier work
NPRC = biological target: T1, NPRC (Homo sapiens, UniProt P17342); settings: comparison between natriuretic peptides, Vesely 2008; cited from earlier work
T1 sequence (P17342 27-541): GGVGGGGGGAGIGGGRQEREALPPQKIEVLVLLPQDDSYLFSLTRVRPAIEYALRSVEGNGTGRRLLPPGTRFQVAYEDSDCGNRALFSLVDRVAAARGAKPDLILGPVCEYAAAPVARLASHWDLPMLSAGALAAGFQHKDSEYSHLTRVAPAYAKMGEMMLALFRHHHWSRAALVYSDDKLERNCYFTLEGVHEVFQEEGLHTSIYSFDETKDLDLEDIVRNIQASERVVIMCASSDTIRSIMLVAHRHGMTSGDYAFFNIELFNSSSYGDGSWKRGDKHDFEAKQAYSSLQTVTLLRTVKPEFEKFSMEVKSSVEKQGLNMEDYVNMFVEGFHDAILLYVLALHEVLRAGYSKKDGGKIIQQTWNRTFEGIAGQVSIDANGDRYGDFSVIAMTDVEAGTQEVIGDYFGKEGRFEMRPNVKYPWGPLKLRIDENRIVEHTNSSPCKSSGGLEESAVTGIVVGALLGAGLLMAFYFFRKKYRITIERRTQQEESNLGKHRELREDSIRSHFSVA

NPRA = biological target: T2, NPRA (Homo sapiens, UniProt P16066); settings: comparison between natriuretic peptides, Vesely 2008; cited from earlier work
T2 sequence (P16066 33-1061): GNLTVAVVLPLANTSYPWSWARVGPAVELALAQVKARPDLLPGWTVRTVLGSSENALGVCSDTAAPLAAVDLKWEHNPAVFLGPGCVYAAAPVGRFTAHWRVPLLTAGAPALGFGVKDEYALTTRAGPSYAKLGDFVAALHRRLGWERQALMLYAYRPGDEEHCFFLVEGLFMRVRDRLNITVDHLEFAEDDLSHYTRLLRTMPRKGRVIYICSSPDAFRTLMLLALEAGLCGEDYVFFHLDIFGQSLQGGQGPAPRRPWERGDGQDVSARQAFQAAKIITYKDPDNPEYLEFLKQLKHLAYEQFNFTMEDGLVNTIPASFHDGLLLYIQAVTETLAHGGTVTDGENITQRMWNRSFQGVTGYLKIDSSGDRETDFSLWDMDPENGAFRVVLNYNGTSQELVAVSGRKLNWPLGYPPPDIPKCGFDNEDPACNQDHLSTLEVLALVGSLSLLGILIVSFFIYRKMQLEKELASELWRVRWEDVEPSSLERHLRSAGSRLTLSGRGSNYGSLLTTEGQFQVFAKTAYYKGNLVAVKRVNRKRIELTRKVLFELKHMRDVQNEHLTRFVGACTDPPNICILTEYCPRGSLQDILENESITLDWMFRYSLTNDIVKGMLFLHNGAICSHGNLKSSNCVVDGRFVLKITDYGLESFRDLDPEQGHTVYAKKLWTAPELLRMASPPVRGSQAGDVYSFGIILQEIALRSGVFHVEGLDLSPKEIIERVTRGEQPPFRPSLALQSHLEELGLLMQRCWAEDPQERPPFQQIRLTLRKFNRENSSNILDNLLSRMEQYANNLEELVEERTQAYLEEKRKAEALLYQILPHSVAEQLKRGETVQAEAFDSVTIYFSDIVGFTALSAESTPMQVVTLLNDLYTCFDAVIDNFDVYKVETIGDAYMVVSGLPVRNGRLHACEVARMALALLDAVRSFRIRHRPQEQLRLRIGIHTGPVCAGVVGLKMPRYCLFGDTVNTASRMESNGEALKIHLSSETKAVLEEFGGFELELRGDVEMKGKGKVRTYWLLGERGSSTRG

For “ANP: atrial natriuretic peptide; Table III sequence SLRRSSCFGGRMDRIGAQSGLGCNSFRY [reference compound]”, the “Optical Densities in 96_Well Plate, Average” value (from here on “Optical Densities … Average”) ([1]; peptide 0.01 μM) was 0.908, the “Optical Densities in 96_Well Plate, single well” value (from here on “Optical Densities … single well”) ([1]; peptide 0.01 μM) was 0.981 and 0.815 and 0.822 and 0.965 and 0.955 and the “Optical Densities … Average” value ([1]; peptide 0.03 μM) was 0.935. For the same substance, the “Optical Densities … single well” value ([1]; peptide 0.03 μM) was 0.948 and 0.882 and 0.911 and 0.951 and 0.982, the “Optical Densities … Average” value ([1]; peptide 0.1 μM) was 0.838 and the “Optical Densities … single well” value ([1]; peptide 0.1 μM) was 0.884 and 0.889 and 0.907 and 0.862 and 0.650. For the same substance, the “Optical Densities … Average” value ([1]; peptide 0.3 μM) was 0.974, the “Optical Densities … single well” value ([1]; peptide 0.3 μM) was 1.001 and 0.889 and 0.837 and 0.934 and 1.209 and the “Optical Densities … Average” value ([1]; peptide 1.0 μM) was 0.914. The “Optical Densities … single well” value ([1]; peptide 1.0 μM) was 1.018 and 0.819 and 0.954 and 0.829 and 0.951, the “Activity of peptides sharing the conserved motif” value (cancer cells [2]) was “have activity” and the “Effect on VEGF-induced decrease in trans-epithelial electrical resistance (TEER)” value [3] was “attenuated the effect of VEGF; also recorded: This decrease is attenuated by ANP”. The “Relative potency of NPs” value (cancer cells [4]) was “greater potency observed for ANP than CNP”, the “Relative binding affinity at NPRC” value (NPRC) was “higher binding affinities at NPRA and NPRC” and the “Relative binding affinity at NPRA” value (NPRA) was “higher binding affinities at NPRA and NPRC”.
